Measurements taken from PMC3723327 (Journal of biomolecular screening, 2012).

Key:
MEKK2 [1] = biological target: T1, MEKK2 (Homo sapiens, UniProt Q9Y2U5); experiment: MEKK2 transphosphorylation activity assay; format: biochemical; settings: 2 nM MEKK2, 200 nM MKK6, 3 μM ATP
T1 sequence (Q9Y2U5 1-619): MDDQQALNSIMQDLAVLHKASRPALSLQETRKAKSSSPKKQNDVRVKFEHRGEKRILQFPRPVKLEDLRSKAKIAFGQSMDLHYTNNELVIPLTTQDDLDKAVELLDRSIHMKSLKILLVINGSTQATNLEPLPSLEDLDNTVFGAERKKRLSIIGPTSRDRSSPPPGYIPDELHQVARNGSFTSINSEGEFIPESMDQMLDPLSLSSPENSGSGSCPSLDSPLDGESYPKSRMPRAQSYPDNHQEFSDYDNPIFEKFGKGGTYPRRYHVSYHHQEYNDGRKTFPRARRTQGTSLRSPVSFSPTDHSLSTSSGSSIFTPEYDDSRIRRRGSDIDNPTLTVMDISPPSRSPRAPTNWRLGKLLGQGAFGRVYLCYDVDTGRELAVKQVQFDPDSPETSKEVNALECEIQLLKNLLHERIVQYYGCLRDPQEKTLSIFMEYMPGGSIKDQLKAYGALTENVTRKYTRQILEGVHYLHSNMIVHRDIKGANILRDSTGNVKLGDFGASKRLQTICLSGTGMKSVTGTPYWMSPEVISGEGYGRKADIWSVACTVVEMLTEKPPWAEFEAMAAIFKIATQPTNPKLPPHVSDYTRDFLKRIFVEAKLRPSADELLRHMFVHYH

MEKK2 [2] = biological target: T1, MEKK2; experiment: MEKK2 intrinsic ATPase activity assay; format: biochemical; settings: for inhibition at 1 µM: read-out: Inhibition in MEKK2 intrinsic ATPase assay screen (hit criterion)
MEKK2 [3] = biological target: T1, MEKK2; experiment: MEKK2 TR-FRET binding assay; settings: 5 nM MEKK2, 25 nM kinase tracer 236
MEKK2 [4] = settings: read-out: Published MEKK2 Binding Assay IC50; TR-FRET binding assay; ref Invitrogen Lanthascreen Eu Kinase Binding Assay for MEKK2 Validation Packet; cited from earlier work
MEKK2 [5] = experiment: MEKK2 intrinsic ATPase activity assay; format: biochemical, human; settings: high compound concentrations
MEKK2 [6] = biological target: T2, MEKK2 (Homo sapiens, UniProt Q9Y2U5); experiment: MEKK2 intrinsic ATPase activity assay; format: biochemical; settings: MEKK2 from vendor 3 (catalytic domain only)
T2 sequence (Q9Y2U5 357-619): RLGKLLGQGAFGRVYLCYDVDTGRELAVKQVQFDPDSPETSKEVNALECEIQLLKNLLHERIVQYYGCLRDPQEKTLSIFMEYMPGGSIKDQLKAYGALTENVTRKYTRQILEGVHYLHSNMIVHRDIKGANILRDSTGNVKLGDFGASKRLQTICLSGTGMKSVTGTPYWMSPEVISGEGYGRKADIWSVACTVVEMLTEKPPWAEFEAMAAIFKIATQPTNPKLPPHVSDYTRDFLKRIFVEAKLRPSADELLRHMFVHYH

[7] = 10 nM MEKK2 (vendor 1), 30 μM ATP

SMILES	Transphosphorylation Assay Hill Slope ± SD (MEKK2 [1])	MEKK2 Intrinsic ATPase Assay Hill Slope ± SD (MEKK2 [2]; [7])	inhibition at 1 µM (MEKK2 [2])	Binding Assay Hill Slope ± SD (MEKK2 [3])	IC50 (MEKK2 [4])	other results
COc1cc(Nc2c(C#N)cnc3cc(OCCCN4CCN(C)CC4)c(OC)cc23)c(Cl)cc1Cl [Bosutinib]	1.03 ± 0.21	1.07 ± 0.09	≥ 50%	0.93 ± 0.05	–	–
Cc1nc(Nc2ncc(C(=O)Nc3c(C)cccc3Cl)s2)cc(N2CCN(CCO)CC2)n1 [Dasatinib]	–	1.10 ± 0.20	–	–	[…]	–
Cc1ccc(Nc2nccc(N(C)c3ccc4c(C)n(C)nc4c3)n2)cc1S(N)(=O)=O [Pazopanib]	–	1.06 ± 0.07	≥ 50%	1.05 ± 0.03	–	–
CN[C@@H]1C[C@H]2O[C@@](C)([C@@H]1OC)n1c3ccccc3c3c4c(c5c6ccccc6n2c5c31)C(=O)NC4 [Staurosporine]	–	–	–	–	–	MEKK2 Intrinsic ATPase Assay Hill Slope ± SD (MEKK2 [2]; 1 nM (instead of 10 nM) MEKK2 enzyme): 0.93 ± 0.13
CCN(CC)CCNC(=O)c1c(C)[nH]c(/C=C2\C(=O)Nc3ccc(F)cc32)c1C [Sunitinib]	0.96 ± 0.15	1.06 ± 0.16	–	0.89 ± 0.04	[…]	Inhibition of ATPase activity at high compound concentrations (MEKK2 [5]): complete inhibition; Intrinsic ATPase assay Hill slope ± SD (MEKK2 [6]): 1.01 ± 0.05; Difference in IC50 values between ATPase and binding assay (MEKK2 [2]; ATPase assay vs TR-FRET binding assay): 2.4 fold; Intrinsic ATPase assay Hill slope ± SD (MEKK2 [2]; MEKK2 from vendor 2): 1.01 ± 0.02
Cc1cc(Nc2cc(N3CCN(C)CC3)nc(Sc3ccc(NC(=O)C4CC4)cc3)n2)[nH]n1 [VX-680]	–	0.97 ± 0.13	–	–	2.3 µM	–
